# What was measured:
# nucleases = details: cited from earlier work
# [1] = tested on: Y STRAND 3'-GAG CAU GGY' AAG GCC AGG (SEQ ID NO: 7); format: binding
Compound,nuclease resistance (nucleases),"Tm, G-C [1]","delta Tm, G-A [1]","delta Tm, G-Bu [1]","delta Tm, G-G [1]","delta Tm, G-T [1]"
poly(2'-chloro-2'-deoxycytidylic acid),resistant to various nucleases,–,–,–,–,–
Nc1cc2c(ncn2[C@@H]2O[C@H](CO)[C@@H](O)[C@H]2O)c(=O)[nH]1 [3-deazaguanosine],–,59 C,-2 C,-7 C,+1 C,-1 C
poly(2'-chloro-2'-deoxyuridylic acid),resistant to various nucleases,–,–,–,–,–

# — US6262241A, “Compound for detecting and modulating RNA activity and gene expression” (Isis Pharmaceuticals, Inc., priority 1995, dated 2001)
